From article PMC9415903, “Confocal Laser Scanning Microscopy and Model Membranes to Study Translocation Mechanisms of Membrane Active Peptides” (Pharmaceutics, 2022)
“Also recorded” adds a separate entry of the source.

How the values were obtained:
[1] = Peptide internalization and Alexa Fluor 488 efflux in neutral GUVs, confocal laser scanning microscopy; assay type: in vitro ADME; conditions: POPC/chol 80/20 mol% GUVs; 2 µM peptide; room temperature; up to 30 min; CLSM
Procedure: (§1) Giant unilamellar vesicles (GUVs) were obtained by the electroformation method as previously indicated. For that, 30 µL of different lipid mixtures (detailed in the Results section) were dissolved in chloroform and spread on indium tin oxide (ITO) glass slides (Sigma-Aldrich, Schnelldorf, Germany). After drying, the lipid film was gently hydrated with 200 mM sucrose dissolved in double distilled water, mixed with a fluorescent tracer, Alexa Fluor 488-maleimide (AF 488), at a concentration of 10 µM. The freshly prepared GUVs were then transferred in 180 mM glucose solution containing 20 mM Hepes, with a pH of 7.5. The samples were observed by confocal microscope at room temperature.
(§2) The experiments were performed using a confocal laser scanning microscope (Nikon Ti-E, Tokyo, Japan), equipped with LU4 Four-Laser Module with AOTF, a Plan Fluor 40x DIC M N2 objective and a DS-F1camera. An Alexa Fluor 488 tracer was excited using a line of 457–514 nm argon ion laser, TAMRA-TAT peptide with a diode laser emitting at 561 nm, and Dy647P1-peptides with a 642 nm diode laser. To observe the accumulation and internalization of peptides and the efflux of fluorescent tracers, the freshly prepared GUVs were transferred to a solution of glucose containing 2 µM fluorescently labeled peptide, to provide a homogeneous distribution of peptides to membranes. For each type of experiment, at least 10–15 GUVs with a diameter of 30–40 μm from two independent experiments were analyzed. Successive images were collected using the Nis-Elements Advanced Research imaging software (Nikon) and then quantification of fluorescence was performed using Fiji ImageJ [14]. The resulting data were then analyzed with Origin Pro 8.5 (OriginLab Corporation, Northampton, MA, USA).
(§3) For the present study, GUVs mimicking the mammalian plasma membrane were prepared as follows: POPC/cholesterol 80/20 mol%, POPC/POPE/cholesterol 50/30/20 mol% and POPC/POPS/cholesterol 50/30/20 mol%. The peptides fluorescently labeled (see Figure 1 for structure) were added at a concentration of 2 µM and the experiments were performed at room temperature.

[2] = Peptide internalization and Alexa Fluor 488 efflux in POPE GUVs, confocal laser scanning microscopy; assay type: in vitro ADME; conditions: room temperature; for Kint, peptide internalization rate constant: GUVs POPC/POPE/chol 50/30/20 mol%, 2 µM fluorescently labeled peptide, 180 mM glucose, 20 mM Hepes pH 7.5, CLSM fluorescence inside GUVs, fit F(t)=1−exp(−kint×t), data from three experiments averaged
Procedure: as §1, §2, §3
(§4) For kinetic traces, the time course of fluorescence intensity corresponding to peptides and Alexa Fluor 488 inside GUVs was measured. The data from three experiments were averaged and then fitted with a single rising exponential function to determine the values of internalization rates:F(t) = 1 − exp (−kint × t) (1) where t is time and kint is the peptide internalization rate constant.
(§5) The intensity corresponding to release of tracer Alexa Fluor 488 from GUVs in the presence of peptides was also measured to determine the efflux rates, using a single exponential decay function:F(t) = exp (−keff × t) (2) where t is time and keff is the peptide efflux rate constant.

[3] = Peptide internalization and Alexa Fluor 488 efflux in POPS GUVs, confocal laser scanning microscopy; assay type: in vitro ADME; conditions: room temperature; for Kint, peptide internalization rate constant: GUVs POPC/POPS/chol 50/30/20 mol%, 2 µM fluorescently labeled peptide, 180 mM glucose, 20 mM Hepes pH 7.5, CLSM fluorescence inside GUVs, fit F(t)=1−exp(−kint×t), data from three experiments averaged; for Internalization of peptide in GUVs / Pore formation (efflux of AF 488, lytic effect): POPC/POPS/chol 50/30/20 mol% GUVs, 2 µM peptide, 30 min, CLSM
Procedure: as §1, §2, §3, §4, §5

[4] = DOPS and/or DOPE containing GUVs; cited from earlier work
Description: In GUVs that contain 30 mol% PE, all peptides internalize, but only TAT and NKCS are able to form transmembrane pores through which the fluorescent dyes Alexa Fluor 488 can pass.

[5] = TAMRA-TAT internalization and Alexa Fluor 488 efflux in GUVs with increasing cholesterol; assay type: in vitro ADME; conditions: 40 mol% chol (POPC/POPE/POPS/chol 30/20/10/40 mol%); CLSM
Procedure: as §1
The experiments were performed using a confocal laser scanning microscope (Nikon Ti-E, Tokyo, Japan), equipped with LU4 Four-Laser Module with AOTF, a Plan Fluor 40x DIC M N2 objective and a DS-F1camera. […] For each type of experiment, at least 10–15 GUVs with a diameter of 30–40 μm from two independent experiments were analyzed. Successive images were collected using the Nis-Elements Advanced Research imaging software (Nikon) and then quantification of fluorescence was performed using Fiji ImageJ [14]. The resulting data were then analyzed with Origin Pro 8.5 (OriginLab Corporation, Northampton, MA, USA). […]

[6] = POPC/POPE/chol 50/30/20 mol% GUVs, 2 µM peptide, 30 min, CLSM

| Molecule | Efflux of Alexa Fluor 488 from GUVs [1] | Internalization of peptide in GUVs [1] | Kint, peptide internalization rate constant [2] | Efflux of AF 488 (lytic effect, pore formation) [2, 6] | Internalization of peptide in GUVs [2, 6] | Kint, peptide internalization rate constant [3] | Internalization of peptide in GUVs [3] | Pore formation (efflux of AF 488, lytic effect) [3] | Pore formation [4] | Internalization of the peptide [5] |
| --- | --- | --- | --- | --- | --- | --- | --- | --- | --- | --- |
| Dy647P1-LRRISKDILTGKK [NKCS-[15-27]] | Neither peptide internalization nor AF 488 efflux can be observed | Neither peptide internalization nor AF 488 efflux can be observed | (0.20 ± 0.04) × 10^−3 s^−1 | without the release of AF 488 | internalized | (0.50 ± 0.23) × 10^−3 s^−1 | internalized | no lytic effect; also recorded: just translocate without generating pores | – | – |
| Dy647P1-CGNKRTR [tLyP-1, Dy647P1-labeled tumor homing peptide, truncated linear form of cyclic peptide LyP-1] | Neither peptide internalization nor AF 488 efflux can be observed | – | (0.78 ± 0.03) × 10^−3 s^−1 | without the release of AF 488 | – | (0.75 ± 0.27) × 10^−3 s^−1 | – | just translocate without generating pores | – | – |
| nona-arginine [R9] | – | – | – | – | – | – | – | – | able to form pores | – |
| CN(C)c1ccc2c(c1)Oc1cc(N(C)C)ccc1C21OC(=O)c2cc(C(=O)N[C@@H](Cc3ccc(O)cc3)C(=O)NCC(=O)N[C@@H](CCCNC(=N)N)C(=O)N[C@@H](CCCCN)C(=O)N[C@@H](CCCCN)C(=O)N[C@@H](CCCNC(=N)N)C(=O)N[C@@H](CCCNC(=N)N)C(=O)N[C@@H](CCC(N)=O)C(=O)N[C@@H](CCCNC(=N)N)C(=O)N[C@@H](CCCNC(=N)N)C(=O)N[C@@H](CCCNC(=N)N)C(=O)O)ccc21 [TAT, reference compound] | – | Neither peptide internalization nor AF 488 efflux can be observed | – | – | – | – | internalized | – | – | neither the internalization of the peptide nor the efflux of the fluorescent tracer could be registered |
